# Like-named read-outs stand apart in the source and are kept apart here.
# Legend:
# [1] = tested on: cytopathogenic bovine orphan virus (ECBO) strain LCR-4; experiment: Time of addition assay (post-adsorption), CPE/MTT in A549 cells; assay type: cell-based, cytopathogenic bovine orphan virus (BEV-1); conditions: for EC50: A549; for antiviral activity: ECBO, A549 cells, CC20 concentration
# [2] = tested on: T47D (human ductal carcinoma); experiment: Cytotoxic activity, WST-1 assay; assay type: cell-based; conditions: 72 h, Neg = negative in the concentration used; for IC50: Homo sapiens
# [3] = tested on: MCF-7 (human adenocarcinoma); experiment: Cytotoxic activity, WST-1 assay; assay type: cell-based; conditions: MCF-7, 72 h, Neg = negative in the concentration used; for IC50: Homo sapiens, MCF7
# [4] = tested on: SNB-19 (glioblastoma); experiment: Cytotoxic activity, WST-1 assay; assay type: cell-based, human; conditions: SNB-19, 72 h, Neg = negative in the concentration used; for IC50: Homo sapiens
# [5] = tested on: Colo-829 (human malignant melanoma); experiment: Cytotoxic activity, WST-1 assay; assay type: cell-based; conditions: Colo-829, 72 h, Neg = negative in the concentration used; for IC50: Homo sapiens
# [6] = tested on: C-32 (human amelanotic melanoma); experiment: Cytotoxic activity, WST-1 assay; assay type: cell-based; conditions: C-32, 72 h, Neg = negative in the concentration used; for IC50: Homo sapiens
# [7] = tested on: SKOV-3 human ovarian cancer cell line; experiment: Inhibition of tumor cell proliferation (MTT); conditions: SK-OV-3, 96 h, read-out: Max. Inhibition (% of Control)
# Description: Antiproliferative activities of the compounds were measured by the MTT assay using A549 cells and a human ovarian cancer cell line SKOV-3 (adenocarcinoma ATCC® HTB77™). A total of 2 × 10^3 cells in DMEM medium supplemented with 5% FBS were placed in each well of a 96-well flat-bottom plate. After 24 h of incubation at 37 °C in 5% CO2, the growth medium was replaced by media containing different concentrations of the derivatives. Control cultures received cisplatin 0.1–10 μg/mL, and blank wells contained 100 μL of growth medium with no cells. After 96 h of incubation, cell proliferation was determined by the colorimetric MTT assay (570 nm) reading for each concentration compared with the control. At least three replicates for each sample were used to determine the cell proliferation.
# [8] = Cytotoxicity assay (MTT), determination of CC50; conditions: human
# Description: (§1) The cytotoxic effect of compounds on A549 cells was determined by the MTT method, as previously described [36]. The MTT assay is the enzyme-based method, which use the 3-(4,5-dimethylthiazol-2-yl)-2,5-diphenyltetrazolium bromide as a reductive coloring agent. Briefly, subconfluent monolayers of A549 cells (2 × 10^4 cell/well in Dulbecco’s Minimal Essential Medium (DMEM) supplemented with 5% fetal bovine serum (FBS), antibiotics (100 U/mL penicillin and 100 μg/mL streptomycin), and 2 mM L-glutamine (all from Sigma Aldrich, St. Louis, MO, USA) were incubated in 96-multi-well plates in the presence of dilutions of the compounds ranging from 100 μg/mL to 0.5 μg/mL, in triplicate for 48 h at 37 °C in a humidified atmosphere with 5% CO2. After 48 h, 20 μL of MTT solution (Promega, Madison, WI, USA) was added to each well, and the microplates were kept at 37 °C/5% CO2 for 3 h. Then, the solubilization/stop solution containing SDS-HCl (100 μL/well) was added, and the absorbance values of the wells were measured at 570 nm using a 96-well plate reader (Multiskan RC spectrophotometer, Thermo Labsystems, Waltham, MA, USA). Cell viability (%) was calculated for each concentration as Abs treated/Abs control × 100, where Abs treated and Abs control are the absorbance readings for the wells with and without the tested compounds, respectively. The 50% cytotoxic concentration (CC50) was defined as the concentration that reduced cell viability by 50% with respect to controls without drugs. The CC50 value was calculated from the corresponding dose–response curves.
# [9] = tested on: human adenovirus type-5 (HAdV-5); experiment: Time of addition assay, CPE/MTT in A549 cells; assay type: cell-based; conditions: for antiviral activity: HAdV-5, A549 cells, CC20 concentration
# [10] = tested on: vesicular stomatitis virus (VSV); assay type: cell-based; conditions: A549 cells, CC20 concentration
# [11] = tested on: herpes simplex virus type-1 (HSV-1); experiment: Time of addition assay, CPE/MTT in A549 cells; assay type: cell-based; conditions: HSV-1, A549 cells, CC20 concentration
# [12] = in vitro; conditions: human
# Description: as §1
# [13] = tested on: Escherichia coli ATCC 25922; experiment: Broth microdilution method (MIC, MBC)
# Description: (§2) The minimal inhibitory concentration (MIC) and minimal bactericidal concentration (MBC) were determined by the broth microdilution method, according to the Clinical and Laboratory Standards Institute [32, 33].
# (§3) The antibacterial and antifungal activities of compounds were evaluated using the following strains: Staphylococcus aureus (ATCC 25923), Enterococcus faecalis (ATCC 29212), Escherichia coli (ATTC 25922), Pseudomonas aeruginosa (ATTC 27853), Klebsiella pneumoniae ATTC 700603), and Candida albicans (ATTC 10231). Cells were cultured for 24–48 h on Columbia agar or Sabouraud agar (C. albicans) in a saline solution (0.9% NaCl) and adjusted to a 0.5 McFarland density standard (1.5 × 10^8 CFU/mL). The final density of microorganisms was approximately 3 × 10^5 CFU/mL. The solutions of compounds were added to the medium at various concentrations (0.06 μM–2 mM). […] The experiments were performed in triplicate.
# [14] = tested on: Klebsiella pneumoniae ATCC 700603; experiment: Broth microdilution method (MIC, MBC)
# Description: as §2, §3
# [15] = selectivity index, ratio of CC50 to EC50, ECBO in A549 cells
SMILES,EC50 [1],"SI [1, 15]",IC50 ± SD [2],IC50 ± SD [3],IC50 [4],IC50 [5],IC50 ± SD [6],antiviral activity [9],antiviral activity [10],antiviral activity [11],IC50 [6],IC50 ± SD [4],melting point,CC50 at 48 h [12],also measured
"C=C(C)[C@@H]1CC[C@]2(CO)CC[C@]3(C)[C@H](CC[C@@H]4[C@@]5(C)CC[C@H](O)C(C)(C)[C@@H]5CC[C@]43C)[C@@H]12 [Betulin 1, Betulin]",0.5 µg/mL,37.0,Neg,Neg,17.7 ± 1.2 µM,15.3 ± 2.2 µM,Neg,–,–,–,–,–,–,–,"SI ([1]; selectivity index, ratio of CC50 to EC50, ECBO in A549 cells, listed as betulin 1): 37; inhibition at 2.5 µg/mL [7]: 30%; CC50 at 48 h [8]: 18.5 µg/mL"
"C#CC(=O)OC[C@]12CCC(C(=C)C)C1C1CCC3[C@@]4(C)CC[C@H](O)C(C)(C)C4CC[C@@]3(C)[C@]1(C)CC2 (stereo partly drawn) [Compound 3, 28-O-propynoylbetulin]",–,–,–,–,4.2 ± 0.3 µM,1.7 ± 0.08 µM,–,did not exhibit antiviral activity,did not exhibit antiviral activity,did not exhibit antiviral activity,16.7 ± 0.8 µM,–,–,–,antiviral activity [1]: did not exhibit antiviral activity; IC50 [2]: 110.8 ± 0.9 µM; IC50 [3]: 102 ± 1.4 µM
"C#CC(=O)OC[C@]12CCC(C(=C)C)C1C1CCC3[C@@]4(C)CC[C@H](OC(=O)C#C)C(C)(C)C4CC[C@@]3(C)[C@]1(C)CC2 (stereo partly drawn) [Compound 4, 3,28-O,O’-di(propynoyl)betulin]",–,–,Neg,Neg,13.1 ± 1.3 µM,9.7 ± 1.5 µM,–,did not exhibit antiviral activity,did not exhibit antiviral activity,did not exhibit antiviral activity,121 ± 4.1 µM,–,–,–,antiviral activity [1]: did not exhibit antiviral activity
C=C(C)C1CCC2(COC(=O)c3cn(C4CC(n5cc(C)c(=O)[nH]c5=O)OC4CO)nn3)CCC3(C)C(CCC4C5(C)CCC(O)C(C)(C)C5CCC43C)C12 (stereo not drawn) [Compound 5e],1 µg/mL,10.3,total decay of cytotoxic activity and Neg,Neg,–,35.1 ± 6.2 µM,–,–,–,–,75.2 ± 3.7 µM,Neg,181 to 185 °C,10.3 µg/mL,"SI ([9]; anti-HAdV-5 activity, ratio of CC50 to EC50, data not shown): 6; MBC ([13]; ATCC25922): 7.8 µM; MIC ([13]; ATCC25922, 18 h): 1.95 µM; bactericidal capacity ([13]; judged from MBC:MIC ratio): bactericidal activity; MBC:MIC ratio [14]: > 4; MBC ([14]; ATCC700603): 3.9 µM; MIC ([14]; ATCC700603, 18 h): 0.95 µM; bactericidal capacity ([14]; judged from MBC:MIC ratio): bacteriostatic; inhibition at 50 µg/mL [7]: 75%"
"C=C(C)C1CCC2(COC(=O)c3cn(C4OC(CO)C(O)C(O)C4O)nn3)CCC3(C)C(CCC4C5(C)CCC(O)C(C)(C)C5CCC43C)C12 [Compound 5f, 28-O-[1-(1-Deoxy-β-D-glucopyranosyl)-1H-1,2,3-triazol-4-yl]carbonylbetulin]",5 µg/mL,20.0,total decay of cytotoxic activity and Neg,Neg,–,110 ± 7.2 µM,Neg,–,–,–,–,Neg,184 to 186 °C,100 µg/mL,inhibition at 25 µg/mL [7]: 35%
"C=C(C)C1CC[C@]2(COC(=O)c3cn(CC(N)C(=O)O)nn3)CC[C@]3(C)C(CCC4[C@@]5(C)CC[C@H](O)C(C)(C)C5CC[C@]43C)C12 (stereo partly drawn) [Compound 5j, 2-Amino-3-[4-(28-O-betulinylcarbonyl)-1H-1,2,3-triazol-1-yl]propanoic acid]",5 µg/mL,20.0,total decay of cytotoxic activity and Neg,Neg,–,3.3 ± 1.1 µM,Neg,–,–,–,–,Neg,265 to 269 °C,100 µg/mL,inhibition at 10 µg/mL [7]: 40%
"C=C(C)C1CCC2(COC(=O)c3cn(C4OC(CO)C(O)C(O)C4O)nn3)CCC3(C)C(CCC4C5(C)CCC(OC(=O)c6cn(C7OC(CO)C(O)C(O)C7O)nn6)C(C)(C)C5CCC43C)C12 [Compound 6f, 3,28-O,O’-Di[1-(1-deoxy-β-D-glucopyranosyl-1H-1,2,3-triazol-4-yl)carbonyl]betulin]",5 µg/mL,20.0,total decay of cytotoxic effect and Neg,total decay of cytotoxic effect and Neg,–,–,total decay of cytotoxic effect and Neg,–,–,–,–,total decay of cytotoxic effect and Neg,–,100 µg/mL,IC50 ± SD [5]: total decay of cytotoxic effect and Neg
"C=C(C)C1CC[C@]2(COC(=O)c3cn(CCCO)nn3)CC[C@]3(C)C(CCC4[C@@]5(C)CC[C@H](OC(=O)c6cn(CCCO)nn6)C(C)(C)C5CC[C@]43C)C12 (stereo partly drawn) [Compound 6h, 3,28-O,O’-Di[1-(3-hydroxypropyl-1H-1,2,3-triazol-4-yl)carbonyl]betulin]",0.25 µg/mL,–,–,–,68.3 ± 0.9 µM,6.5 ± 1 µM,–,essentially inactive,essentially inactive,essentially inactive,9.1 ± 0.2 µM,–,172 to 176 °C,29.8 µg/mL,IC50 [2]: 62.4 ± 1.1 µM; IC50 [3]: 11.7 ± 1.2 µM; inhibition at 50 µg/mL [7]: 70%
"NC(=O)c1ncn([C@@H]2O[C@H](CO)[C@@H](O)[C@H]2O)n1 [Ribavirin, reference compound]",10 µg/mL,–,–,–,–,–,–,–,–,–,–,–,–,–,SI [1]: 10.0; inhibition at 1.5 µg/mL [7]: 30%; CC50 at 48 h ([8]; A549 cells): 100 µg/mL

# — publication PMC6150379, “Novel Triazole Hybrids of Betulin: Synthesis and Biological Activity Profile” (Molecules : A Journal of Synthetic Chemistry and Natural …, 2017)
